Laboratory results published in publication PMC3203539 (2011).
Read-outs that look alike come from different tables or passages of the source.

Experiments:
[1] = target: T1, Sth1 (ATPase subunit of RSCt, trimeric minimal RSC) (Saccharomyces cerevisiae, UniProt P32597); type: binding
T1 sequence (P32597 301-1097): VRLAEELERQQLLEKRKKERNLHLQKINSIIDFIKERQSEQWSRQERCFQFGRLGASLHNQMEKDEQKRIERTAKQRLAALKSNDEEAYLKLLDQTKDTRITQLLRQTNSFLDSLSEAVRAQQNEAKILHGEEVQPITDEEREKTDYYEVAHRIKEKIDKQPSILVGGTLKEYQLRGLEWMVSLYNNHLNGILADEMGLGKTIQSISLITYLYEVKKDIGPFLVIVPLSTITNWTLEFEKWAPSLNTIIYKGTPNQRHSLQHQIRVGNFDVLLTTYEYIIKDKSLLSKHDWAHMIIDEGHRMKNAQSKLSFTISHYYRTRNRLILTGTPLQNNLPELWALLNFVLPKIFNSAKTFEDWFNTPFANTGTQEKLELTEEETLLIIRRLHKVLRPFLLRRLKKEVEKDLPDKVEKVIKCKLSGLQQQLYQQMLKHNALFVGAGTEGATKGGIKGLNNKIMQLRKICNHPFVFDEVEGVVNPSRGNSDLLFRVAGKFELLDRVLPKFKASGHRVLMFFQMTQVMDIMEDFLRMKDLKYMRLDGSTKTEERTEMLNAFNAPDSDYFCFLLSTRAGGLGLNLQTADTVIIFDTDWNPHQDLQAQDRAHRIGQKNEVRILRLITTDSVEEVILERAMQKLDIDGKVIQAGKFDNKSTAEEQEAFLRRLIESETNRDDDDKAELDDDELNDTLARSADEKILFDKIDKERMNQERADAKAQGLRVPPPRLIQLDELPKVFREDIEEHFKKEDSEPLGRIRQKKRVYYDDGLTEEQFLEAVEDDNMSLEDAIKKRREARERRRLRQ
T1 sequence (Q12406 1-477 partner): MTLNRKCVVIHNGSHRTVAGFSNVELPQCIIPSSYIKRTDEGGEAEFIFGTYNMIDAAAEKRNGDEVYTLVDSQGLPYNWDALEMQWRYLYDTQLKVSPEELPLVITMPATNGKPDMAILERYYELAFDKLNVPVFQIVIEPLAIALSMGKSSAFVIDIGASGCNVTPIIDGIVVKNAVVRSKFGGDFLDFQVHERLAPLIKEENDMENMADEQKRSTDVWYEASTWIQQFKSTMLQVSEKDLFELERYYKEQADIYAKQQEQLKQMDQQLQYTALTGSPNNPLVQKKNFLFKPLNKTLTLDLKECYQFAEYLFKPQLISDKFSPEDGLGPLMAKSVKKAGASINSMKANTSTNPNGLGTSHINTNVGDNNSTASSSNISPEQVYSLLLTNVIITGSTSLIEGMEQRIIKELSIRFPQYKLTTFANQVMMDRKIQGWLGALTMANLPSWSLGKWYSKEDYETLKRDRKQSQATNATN
T1 sequence (Q05123 1-467 partner): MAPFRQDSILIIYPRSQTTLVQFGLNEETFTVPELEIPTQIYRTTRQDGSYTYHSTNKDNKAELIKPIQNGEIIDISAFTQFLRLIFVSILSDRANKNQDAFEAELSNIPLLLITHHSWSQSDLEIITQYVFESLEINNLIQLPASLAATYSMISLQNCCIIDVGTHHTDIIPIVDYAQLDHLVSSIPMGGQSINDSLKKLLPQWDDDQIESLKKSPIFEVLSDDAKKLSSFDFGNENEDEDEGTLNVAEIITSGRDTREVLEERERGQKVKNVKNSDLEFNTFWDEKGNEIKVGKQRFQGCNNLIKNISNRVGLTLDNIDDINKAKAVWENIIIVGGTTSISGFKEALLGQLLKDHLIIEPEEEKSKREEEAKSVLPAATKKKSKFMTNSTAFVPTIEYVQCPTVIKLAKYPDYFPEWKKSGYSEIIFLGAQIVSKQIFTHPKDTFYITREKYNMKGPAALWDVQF

[2] = target: T1, Sth1 (ATPase subunit of RSCt, trimeric minimal RSC); type: binding; remark: listed apart in the source

Row | Structure (SMILES) | Kd [1] [µM] | Kd [2] [µM]
1 | Nc1ncnc2c1ncn2[C@@H]1O[C@H](COP(=O)(O)OP(=O)(O)O)[C@@H](O)[C@H]1O [ADP] | 14 ± 4 | 
2 | Nc1ncnc2c1ncn2[C@@H]1O[C@H](COP(=O)(O)OP(=O)(O)NP(=O)(O)O)[C@@H](O)[C@H]1O [AMP-PNP] |  | 72 ± 6
